Results reported in the CheMixHub ionic liquid set.

Experiment: xn = mol fraction of the nth substance listed

CCCC[n+]1ccn(C)c1.COP(=O)([O-])OC + CCC(=O)O.CCC(=O)[O-].CC[NH+](CC)CCO
101 kPa, x2 = 0
Conditions | viscosity [mPa·s]
283.15 K | 2142
328.15 K | 100.9
343.15 K | 52.35
373.15 K | 19.25

CCCCCCCCn1cc[n+](C)c1.F[B-](F)(F)F + CCC(C)=O
298.15 K, 101 kPa
Conditions | viscosity [mPa·s]
x2 = 0.101 | 188
x2 = 0.4505 | 24.78
x2 = 0.7023 | 5.04
x2 = 0.8033 | 2.29
x2 = 0.899 | 1.03

CCCC[n+]1ccn(C)c1.COP(=O)([O-])OC + CCCC(=O)[O-].CC[NH+](CC)CCO
101 kPa, x2 = 0
Conditions | viscosity [mPa·s]
298.15 K | 609
318.15 K | 168.9
328.15 K | 100.9
348.15 K | 43.18
373.15 K | 19.25

CCCC[n+]1ccn(C)c1.COP(=O)([O-])OC + CCCCC(=O)[O-].CC[NH+](CC)CCO
101 kPa, x2 = 0
Conditions | viscosity [mPa·s]
303.15 K | 426
323.15 K | 129.4
328.15 K | 100.9
348.15 K | 43.18
358.15 K | 30.38
368.15 K | 22.22
373.15 K | 19.25

CCCC[n+]1ccn(C)c1.COP(=O)([O-])OC + CCCCCC(=O)O.CCCCCC(=O)[O-].CC[NH+](CC)CCO
101 kPa, x2 = 0
Conditions | viscosity [mPa·s]
298.15 K | 609
303.15 K | 426
318.15 K | 168.9
333.15 K | 79.9
358.15 K | 30.38
363.15 K | 25.86

CCCCCC[n+]1ccn(C)c1.N#Cc1ccc[n-]1 + CCCCCCCCCCCCCC[P+](CCCCCC)(CCCCCC)CCCCCC.O=S(=O)([N-]S(=O)(=O)C(F)(F)F)C(F)(F)F
283.15 K, 100 kPa
Conditions | viscosity [mPa·s]
x2 = 0 | 900
x2 = 0.1 | 890
x2 = 0.2 | 880
x2 = 0.501 | 850
x2 = 0.601 | 880
x2 = 0.7 | 850
x2 = 0.8 | 870
x2 = 0.9 | 810

[Cl-].[Cl-].[Co+2] + CCCCCCCCCCCCCC[P+](CCCCCC)(CCCCCC)CCCCCC.[Cl-] + CCCCCCCC(=O)O
Conditions | viscosity [mPa·s]
296.1 K, 101.3 kPa, x2 = 0.4, x1 = 0.2 | 8500

O=C([O-])CC(O)(CC(=O)[O-])C(=O)[O-].[Na+].[Na+].[Na+] + CCCCCCCCCCCC[N+](C)(C)C.[Br-] + O
298.15 K, 101 kPa
Conditions | electrical conductivity [S/m]
x1 = 0.0001801, x2 = 6.99e-05 | 0.2684
x1 = 0.0001801, x2 = 7.929e-05 | 0.2719
x1 = 0.0001801, x2 = 8.85e-05 | 0.2754
x1 = 0.0001801, x2 = 9.753e-05 | 0.2789
x1 = 0.0001801, x2 = 0.0001069 | 0.2823
x1 = 0.0001801, x2 = 0.0001161 | 0.2857
x1 = 0.0001801, x2 = 0.0001253 | 0.2892
x1 = 0.0001801, x2 = 0.0001344 | 0.2925
x1 = 0.0001801, x2 = 0.0001434 | 0.2957
x1 = 0.0001801, x2 = 0.0001524 | 0.2987
x1 = 0.0001801, x2 = 0.0001611 | 0.3009
x1 = 0.0001801, x2 = 0.0001696 | 0.3029
x1 = 0.0001801, x2 = 0.0001784 | 0.3047
x1 = 0.0001801, x2 = 0.0001916 | 0.3068
x1 = 0.0001801, x2 = 0.0002048 | 0.3082
x1 = 0.0001801, x2 = 0.0002178 | 0.3097
x1 = 0.0001801, x2 = 0.0002306 | 0.311
x1 = 0.0001801, x2 = 0.0002434 | 0.3121
x1 = 0.0001801, x2 = 0.0002561 | 0.3132
x1 = 0.0001801, x2 = 0.0002685 | 0.3143
x1 = 0.0001801, x2 = 0.000281 | 0.3154
x1 = 0.0001801, x2 = 0.0002933 | 0.3165
x1 = 0.0001801, x2 = 0.0003055 | 0.3176
x1 = 0.0001802, x2 = 0 | 0.2438
x1 = 0.0001802, x2 = 3.07e-06 | 0.2445
x1 = 0.0001802, x2 = 6.32e-06 | 0.2456
x1 = 0.0001802, x2 = 1.391e-05 | 0.2483
x1 = 0.0001802, x2 = 2.348e-05 | 0.2516
x1 = 0.0001802, x2 = 3.251e-05 | 0.2548
x1 = 0.0001802, x2 = 4.154e-05 | 0.258
x1 = 0.0001802, x2 = 5.076e-05 | 0.2614
x1 = 0.0001802, x2 = 6.015e-05 | 0.2648
x1 = 0.001798, x2 = 0.000148 | 1.558
x1 = 0.001798, x2 = 0.0001666 | 1.562
x1 = 0.001798, x2 = 0.0001847 | 1.565
x1 = 0.001798, x2 = 0.0002029 | 1.569
x1 = 0.001798, x2 = 0.0002206 | 1.573
x1 = 0.001798, x2 = 0.0002383 | 1.576
x1 = 0.001798, x2 = 0.0002559 | 1.579
x1 = 0.001798, x2 = 0.000273 | 1.582
x1 = 0.001798, x2 = 0.0002898 | 1.585
x1 = 0.001798, x2 = 0.0003068 | 1.588
x1 = 0.001798, x2 = 0.0003234 | 1.591
x1 = 0.001798, x2 = 0.0003396 | 1.594
x1 = 0.001798, x2 = 0.0003558 | 1.597
x1 = 0.001798, x2 = 0.0003717 | 1.599
x1 = 0.001798, x2 = 0.0003855 | 1.602
x1 = 0.001798, x2 = 0.0004015 | 1.604
x1 = 0.001798, x2 = 0.000417 | 1.607
x1 = 0.001798, x2 = 0.000448 | 1.611
x1 = 0.001799, x2 = 0 | 1.541
x1 = 0.001799, x2 = 6.09e-06 | 1.538
x1 = 0.001799, x2 = 1.458e-05 | 1.538
x1 = 0.001799, x2 = 2.214e-05 | 1.539
x1 = 0.001799, x2 = 2.989e-05 | 1.54
x1 = 0.001799, x2 = 4.188e-05 | 1.542
x1 = 0.001799, x2 = 5.738e-05 | 1.543
x1 = 0.001799, x2 = 7.288e-05 | 1.544
x1 = 0.001799, x2 = 9.225e-05 | 1.547
x1 = 0.001799, x2 = 0.0001101 | 1.55
x1 = 0.001799, x2 = 0.0001291 | 1.554

CCCCO + CCCCCCCCCCCC[N+](C)(C)Cc1ccccc1.O=S(=O)([N-]S(=O)(=O)C(F)(F)F)C(F)(F)F
101 kPa, x2 = 0
Conditions | viscosity [mPa·s]
298.15 K | 2.52
308.15 K | 1.98
313.15 K | 1.75
343.15 K | 0.92
348.15 K | 0.845

[Cl-].[Cl-].[Co+2] + CCCCCCCC[N+](C)(CCCCCCCC)CCCCCCCC.[Cl-] + CCCCCCCC(=O)O
Conditions | viscosity [mPa·s]
296.1 K, 101.3 kPa, x2 = 0.4, x1 = 0.2 | 428

[Cl-].[Cl-].[Co+2] + CCCCCCCC[N+](CCCCCCCC)(CCCCCCCC)CCCCCCCC.[Br-] + CCCCC/C=C\C/C=C\CCCCCCCC(=O)O
296.1 K, 101.3 kPa
Conditions | viscosity [mPa·s]
x2 = 0.4, x1 = 0.2 | 9700
x2 = 0.4286, x1 = 0.1429 | 2780

[Cl-].[Cl-].[Co+2] + CCCCCCCC[N+](CCCCCCCC)(CCCCCCCC)CCCCCCCC.[Br-] + CCCCCCCC(=O)O
296.1 K, 101.3 kPa
Conditions | viscosity [mPa·s]
x2 = 0.2857, x1 = 0.1429 | 2615
x2 = 0.4, x1 = 0.2 | 5700
x2 = 0.4286, x1 = 0.1429 | 7600

[Cl-].[Cl-].[Co+2] + CCCCCCCC[N+](CCCCCCCC)(CCCCCCCC)CCCCCCCC.[Br-] + CCCCCCCCCC(=O)O
Conditions | viscosity [mPa·s]
296.1 K, 101.3 kPa, x2 = 0.4, x1 = 0.2 | 55000

[Cl-].[Cl-].[Co+2] + CCCCCCCC[N+](CCCCCCCC)(CCCCCCCC)CCCCCCCC.[Br-] + Cc1ccc(C(C)C)c(O)c1
296.1 K, 101.3 kPa
Conditions | viscosity [mPa·s]
x2 = 0.4, x1 = 0.2 | 79000
x2 = 0.4286, x1 = 0.1429 | 48000

[Cl-].[Li+] + CCCCCCCCn1cc[n+](C)c1.N#C[S-] + CN1CCCC1=O
298.15 K, 101 kPa
Conditions | viscosity [mPa·s]
x2 = 0, x1 = 0.03756 | 2.607
x2 = 0, x1 = 0.07175 | 3.558
x2 = 0, x1 = 0.1044 | 4.958
